Experiment [1] addresses Sorghum halepense EPSPS with 868-H6 mutations, SEQ ID NO:12 (Sorghum halepense, UniProt H6T5X2, A1R/A3W/A415G/D401G/E301S/E390G/G101A/I207L/K83R/L97C/T278A/T360S/T440Q/V437R/V71Q). The experiment is described as follows: EPSPS substrate saturation kinetics, sorghum H6. The format is biochemical. As for the experimental part: EPSPS activity was determined by quantifying the phosphate generated from the EPSPS reaction. Release of inorganic phosphate was coupled to reaction with 2-amino-6-mercapto-7-methylpurine ribonucleoside, catalyzed by purine-nucleoside phosphorylase (M R Webb, Proc. Natl. Acad. Sci. 89:4884-4887, 1992). The absorbance change that occurs was monitored at 360 nm, where the extinction is 11,200 M^−1 cm^−1, with a Spectramax plate reader (Molecular Devices). To determine kinetic parameters, the varied substrate was present at seven concentrations (the eighth being the blank, containing no substrate) ranging from 4 to 400 uM and the unvaried substrate present at saturation. […] Reactions were monitored with a Spectramax plate reader. […] KI was then calculated from the following form of the Michaelis-Menten equation for competitive inhibition: KI=KM[I]/(KM app−KM) KM approximates the dissociation constant of the enzyme-substrate complex while kcat is the rate of conversion of substrate to product when the substrate concentration is saturating. kcat/KM is a widely accepted parameter for catalytic efficiency when substrate concentration is low (˜KM). […] The parameter kcat/KM×KI is used to quantify both catalytic efficiency and insensitivity and thus the overall fitness of the enzyme. […]

The target in experiment [2] is T1, Zea mays EPSPS variant Zm-P107S (Zea mays, UniProt O24566, P106S).
T1 construct: native maize plus P107S; E. coli BL21(DE3), Ni-NTA purified
T1 sequence (O24566 with tags, fused parts or gaps P106S): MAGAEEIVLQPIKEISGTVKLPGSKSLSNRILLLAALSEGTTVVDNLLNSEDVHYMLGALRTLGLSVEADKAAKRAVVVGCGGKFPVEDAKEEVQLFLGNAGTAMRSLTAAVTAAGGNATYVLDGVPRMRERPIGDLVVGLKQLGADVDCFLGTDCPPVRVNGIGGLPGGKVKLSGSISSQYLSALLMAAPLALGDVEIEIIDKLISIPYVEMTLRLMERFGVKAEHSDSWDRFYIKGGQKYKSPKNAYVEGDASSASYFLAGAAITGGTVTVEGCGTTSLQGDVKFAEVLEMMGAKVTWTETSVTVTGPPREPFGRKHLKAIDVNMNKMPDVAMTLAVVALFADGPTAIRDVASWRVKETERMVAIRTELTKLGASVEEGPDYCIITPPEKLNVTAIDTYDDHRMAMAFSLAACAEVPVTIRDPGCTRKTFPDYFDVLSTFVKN
The experiment is described as follows: Substrate saturation kinetic analysis with glyphosate, Zm-P107S. The format is biochemical.

The subject of experiment [3] is Arabidopsis thaliana Col-0. The experiment is described as follows: Glyphosate spray (Touchdown) tolerance of Arabidopsis transformed with maize EPSPS constructs. It counts as in vivo.

Chain of Sorghum halepense EPSPS with 868-H6 mutations, SEQ ID NO:12 (H6T5X2 entry or part of it with the stated changes): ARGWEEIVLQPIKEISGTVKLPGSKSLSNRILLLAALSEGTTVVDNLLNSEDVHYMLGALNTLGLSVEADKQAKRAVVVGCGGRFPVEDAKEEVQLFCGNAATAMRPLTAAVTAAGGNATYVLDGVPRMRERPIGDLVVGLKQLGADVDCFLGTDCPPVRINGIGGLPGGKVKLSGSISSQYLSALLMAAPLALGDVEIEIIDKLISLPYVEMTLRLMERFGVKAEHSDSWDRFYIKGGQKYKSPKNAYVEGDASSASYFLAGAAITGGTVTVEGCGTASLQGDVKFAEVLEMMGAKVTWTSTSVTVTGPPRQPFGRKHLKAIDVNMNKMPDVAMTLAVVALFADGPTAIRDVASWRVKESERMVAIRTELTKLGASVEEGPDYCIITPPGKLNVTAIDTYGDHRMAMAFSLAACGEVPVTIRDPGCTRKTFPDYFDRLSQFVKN

The term Ki denotes a measure of affinity in units of concentration, obtained from inhibition or displacement. On to `O=C(O)CNCP(=O)(O)O` [glyphosate, N-phosphonomethylglycine], for which the Ki in experiment [1] was determined as 783 µM; in experiment [2], 0.42 µM. Moreover, the “(kcat/KM)*KI” value in experiment [1] (PEP as substrate, glyphosate as inhibitor) stood at 8080; in experiment [2] (substrate saturation, Zm-P107S) it was 51. For the same molecule, the “plant injury and growth inhibition compared to unsprayed controls” value in experiment [3] (plants transformed with UbiQ10 promoter and H6 variant) is on record as “no visible injury or growth inhibition”. Further, the growth after treatment entry in experiment [3] (untransformed plants, 1.26 kg/Ha spray) is reported as “did not grow at all”. For the same molecule, the plant injury entry in experiment [3] (untransformed plants, 1.26 kg/Ha spray, by 10 days) is “chlorosis and imminent necrosis”.

(Values after patent US11549123B2, “Plant EPSP synthases and methods of use” (PIONEER HI-BRED INTERNATIONAL, INC., priority 2015, dated 2023).)
